Measurements as given in article PMC6449406, “Classification of the human phox homology (PX) domains based on their phosphoinositide binding specificities” (Nature Communications, 2019).

Columns and labels:
SNX25 PX domain [1] = molecular target: T1, SNX25 PX domain (Homo sapiens, UniProt Q9H3E2); test: 1H-15N HSQC NMR titration; format: binding; details: pH 7.0, 100 mM NaCl, 298 K; secondary site (Lys734)
T1 construct: PX domain only, 15N-labelled, from GST fusion in E. coli
T1 sequence (Q9H3E2 506-628): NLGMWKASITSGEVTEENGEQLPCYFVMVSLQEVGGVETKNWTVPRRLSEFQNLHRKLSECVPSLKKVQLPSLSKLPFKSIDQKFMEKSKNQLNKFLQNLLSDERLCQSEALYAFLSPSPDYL

SNX1 = molecular target: T2, SNX1 (Homo sapiens, UniProt Q13596); test: biochemical; set-up: ITC, soluble phosphoinositide headgroup analogue titrated into purified PX domain, 1:1 fit; details: ITC, 20 uM PX domain in cell
T2 construct: PX domain only, N-terminal GST removed by thrombin, E. coli
Excerpt: (§1) We next used isothermal titration calorimetry (ITC) to measure the binding of selected PX domains to soluble phosphoinositide headgroup analogues (Supplementary Figures 2, 3; Supplementary Table 4). These experiments quantitatively supported the results of the liposome pelleting assays for all of the PX domains tested. As an orthogonal method of quantitation, we used biolayer interferometry (BLItz) to measure the interactions of PX proteins with different phosphoinositide-containing membranes (Supplementary Figures 4, 5; Supplementary Table 5). In these experiments, liposomes containing a small amount of biotinylated lipids were coupled to streptavidin sensors, and dipped into solutions containing the PX domains at a single concentration of 20 μM. Again, the results of these liposome-binding experiments using BLItz correlated well with both ITC and liposome pelleting assays. The dissociation constants derived from BLItz analyses were generally in agreement with those from ITC and correlated well with the qualitative interactions observed in pelleting assays. As summarized in Supplementary Table 1, many previous reports have described interactions of human PX domain proteins with a variety of different phosphoinositide lipids, as well as other lipids such as phosphatidylserine (PS) and phosphatidic acid (PA) that may promote recruitment to various cellular organelles and membrane domains. Our aim was to perform parallel comparisons of as many human PX domains as possible, using qualitative and quantitative approaches to measure binding to both membrane mimetics and soluble phosphoinositide headgroups. […] Samples were subjected to ultracentrifugation followed by SDS-PAGE and Coomassie staining of the unbound supernatant (S) and bound pellet (P) fractions. b Water-soluble PtdIns3P and PtdIns(3,4)P2 headgroup analogues (500 μM) were titrated into the SGK3 PX domain (20 μM) and measured by ITC. […]

SNX2 = molecular target: T3, SNX2 (Homo sapiens, UniProt O60749); test: biochemical; set-up: ITC, soluble phosphoinositide headgroup analogue titrated into purified PX domain, 1:1 fit; details: ITC, 20 uM PX domain in cell
T3 construct: PX domain only, N-terminal GST removed by thrombin, E. coli
T3 sequence (O60749 140-269 limits assumed): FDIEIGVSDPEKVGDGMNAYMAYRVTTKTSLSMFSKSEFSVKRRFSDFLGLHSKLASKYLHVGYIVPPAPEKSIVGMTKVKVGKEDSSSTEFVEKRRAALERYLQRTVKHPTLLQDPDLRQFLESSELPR
Excerpt: as §1

SNX25 PX domain [2] = molecular target: T1, SNX25 PX domain; test: biochemical; set-up: ITC, soluble phosphoinositide headgroup analogue titrated into purified PX domain, 1:1 fit; details: ITC, 20 uM PX domain in cell
Excerpt: as §1

SNX23 = molecular target: T4, SNX23 (Homo sapiens, UniProt Q96L93); test: biochemical; set-up: ITC titration of soluble phosphoinositide headgroup analogue into PX domain, Kd
T4 construct: gene KIF16B; PX domain, GST removed
T4 sequence (Q96L93 1-1317): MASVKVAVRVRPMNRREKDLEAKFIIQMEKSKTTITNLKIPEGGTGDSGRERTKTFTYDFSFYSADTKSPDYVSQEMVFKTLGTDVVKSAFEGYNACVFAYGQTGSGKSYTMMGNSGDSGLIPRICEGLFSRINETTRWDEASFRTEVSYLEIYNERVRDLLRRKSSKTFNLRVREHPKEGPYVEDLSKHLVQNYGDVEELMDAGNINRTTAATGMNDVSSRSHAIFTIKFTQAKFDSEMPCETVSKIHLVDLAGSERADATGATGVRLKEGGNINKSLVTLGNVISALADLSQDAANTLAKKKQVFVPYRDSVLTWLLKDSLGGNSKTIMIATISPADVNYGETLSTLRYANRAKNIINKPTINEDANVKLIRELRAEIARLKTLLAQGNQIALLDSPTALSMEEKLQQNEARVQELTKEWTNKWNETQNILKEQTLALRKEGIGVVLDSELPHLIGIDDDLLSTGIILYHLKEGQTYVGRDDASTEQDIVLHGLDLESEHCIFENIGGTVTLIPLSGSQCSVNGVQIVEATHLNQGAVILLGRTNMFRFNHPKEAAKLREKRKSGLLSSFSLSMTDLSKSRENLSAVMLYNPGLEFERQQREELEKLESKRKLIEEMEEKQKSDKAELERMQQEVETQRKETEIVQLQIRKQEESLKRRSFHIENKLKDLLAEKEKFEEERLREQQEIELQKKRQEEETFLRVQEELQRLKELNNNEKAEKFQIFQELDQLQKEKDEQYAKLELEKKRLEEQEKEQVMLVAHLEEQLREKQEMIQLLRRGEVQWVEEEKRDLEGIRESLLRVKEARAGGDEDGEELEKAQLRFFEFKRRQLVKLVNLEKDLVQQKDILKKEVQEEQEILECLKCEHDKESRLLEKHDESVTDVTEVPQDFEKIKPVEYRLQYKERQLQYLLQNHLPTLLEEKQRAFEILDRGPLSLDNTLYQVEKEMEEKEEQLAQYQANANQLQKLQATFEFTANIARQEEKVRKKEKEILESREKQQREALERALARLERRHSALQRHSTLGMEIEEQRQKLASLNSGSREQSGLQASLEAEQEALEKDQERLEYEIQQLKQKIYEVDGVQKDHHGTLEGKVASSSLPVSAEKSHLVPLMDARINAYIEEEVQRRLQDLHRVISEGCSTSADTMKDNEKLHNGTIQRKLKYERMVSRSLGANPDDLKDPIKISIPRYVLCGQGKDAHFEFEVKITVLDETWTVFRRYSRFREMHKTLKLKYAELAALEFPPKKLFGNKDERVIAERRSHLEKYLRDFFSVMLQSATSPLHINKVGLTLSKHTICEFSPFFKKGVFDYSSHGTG
Excerpt: We next used isothermal titration calorimetry (ITC) to measure the binding of selected PX domains to soluble phosphoinositide headgroup analogues (Supplementary Figures 2, 3; Supplementary Table 4). These experiments quantitatively supported the results of the liposome pelleting assays for all of the PX domains tested. As an orthogonal method of quantitation, we used biolayer interferometry (BLItz) to measure the interactions of PX proteins with different phosphoinositide-containing membranes (Supplementary Figures 4, 5; Supplementary Table 5). In these experiments, liposomes containing a small amount of biotinylated lipids were coupled to streptavidin sensors, and dipped into solutions containing the PX domains at a single concentration of 20 μM. Again, the results of these liposome-binding experiments using BLItz correlated well with both ITC and liposome pelleting assays. The dissociation constants derived from BLItz analyses were generally in agreement with those from ITC and correlated well with the qualitative interactions observed in pelleting assays. Supplementary Information Supplementary Table 1. Previously reported structures and PtdInsP-binding specificities of mammalian PX proteins. Supplementary Table 2. PX domain constructs used in this study. Supplementary Table 3. […] PX domain binding to phosphoinositides measured by ITC.

[3] = molecular target: the molecule itself; test: SEC; analytical gel filtration, Superdex 200 10/300, 50 mM Tris (pH 8.0), 100 mM NaCl, 2 mM DTT; 100 µl of SNX15 PX domain at 500 µM, 0.5 ml/min, 4 °C; mass from a calibration curve of standards

CCCCCCCC(=O)OC[C@H](COP(=O)(O)O[C@@H]1[C@H](O)[C@H](O)[C@@H](OP(=O)(O)O)[C@H](OP(=O)(O)O)[C@H]1O)OC(=O)CCCCCCC [PtdIns(4,5)P2 headgroup analogue]
1H-15N HSQC NMR titration (SNX25 PX domain [1]): significant chemical shift perturbations were observed with di- and tri-phosphorylated phosphoinositides (PIP2 and PIP3)

CCCCCCCC(=O)OC[C@H](COP(=O)(O)O[C@H]1[C@H](O)[C@@H](O)[C@H](OP(=O)(O)O)[C@@H](OP(=O)(O)O)[C@H]1O)OC(=O)CCCCCCC [PtdIns(3,4)P2 headgroup analogue]
1H-15N HSQC NMR titration (SNX25 PX domain [1]): significant chemical shift perturbations were observed with di- and tri-phosphorylated phosphoinositides (PIP2 and PIP3)

CCCCCCCC(=O)OC[C@H](COP(=O)(O)O[C@H]1[C@H](O)[C@@H](OP(=O)(O)O)[C@H](OP(=O)(O)O)[C@@H](OP(=O)(O)O)[C@H]1O)OC(=O)CCCCCCC [PtdIns(3,4,5)P3 headgroup analogue]
1H-15N HSQC NMR titration (SNX25 PX domain [1]): significant chemical shift perturbations were observed with di- and tri-phosphorylated phosphoinositides (PIP2 and PIP3)

CCCCCCCC(=O)OC[C@H](COP(=O)(O)O[C@@H]1[C@H](O)[C@H](OP(=O)(O)O)[C@@H](O)[C@H](OP(=O)(O)O)[C@H]1O)OC(=O)CCCCCCC [PtdIns(3,5)P2 headgroup analogue]
1H-15N HSQC NMR titration (SNX25 PX domain [1]): significant chemical shift perturbations were observed with di- and tri-phosphorylated phosphoinositides (PIP2 and PIP3) | Kd (SNX1): 42 µM | Kd (SNX2): 35.8 µM | Kd (SNX25 PX domain [2]): 12.1 µM | Kd (SNX23): 11.5 µM

B1: SNX15 PX domain (domain or fragment, human)
chain: MSRQAKDDFLRHYTVSDPRTHPKGYTEYKVTAQFISKKDPEDVKEVVVWKRYSDFRKLHGDLAYTHRNLFRRLEEFPAFPRAQVFGRFEASVIEERRKGAEDLLRFTVHIPALNNSPQLKEFFRGG
notes: source: E. coli BL21(DE3)/pLysS, purified (glutathione-Sepharose, thrombin cleavage, size exclusion chromatography); not shown: GST, N-terminal, cleaved
stoichiometry N [3]: 2
